Article PMC5884652, “New antimicrobial peptide kills drug-resistant pathogens without detectable resistance” (Oncotarget, 2018)
Read-outs that look alike come from different tables or passages of the source. Ends that are not written are not given here.

Tests used:
[1] = system: human red blood cells (hRBCs); test: Hemolysis; assay type: cell-based; settings: PBS buffer containing 8% hRBCs, 1 h, 37° C, absorbance 414 nm, triplicate
Experimental: Fresh human red blood cells (hRBCs) from healthy donors were centrifuged at 800 × g and washed with phosphate-buffered saline (PBS) until the supernatant was clear. Twofold serial dilutions of the peptides in PBS were added to a 96-well plate, after which the hRBCs were added to obtain a final concentration of 8% (vol/vol). The samples were then incubated with mild agitation for 1 h at 37° C. The samples were then centrifuged at 800 × g for 10 min, and the absorbance of the supernatant was measured at 414 nm. All the measurements were performed in triplicate, and the percentages of hemolysis were calculated using equation 1: % hemolysis=[(A414 in peptide solution−A414 in PBS)/(A414 in […]−A414 in PBS)]×100 (1)
Where 100% hemolysis was defined as the absorbance measured from hRBCs exposed to 1% Triton X-100 and zero hemolysis was characterized using hRBCs alone in PBS [40].

P. aeruginosa ATCC 15692 = assay type: cell-based, Pseudomonas aeruginosa
Source text: (§1) The method for peptide synthesis has been described in detail previously. […] Bacillus subtilis KCTC 1998 (LB media), Salmonella typhimurium KCTC 1926 (NB media), and Proteus vulgaris KCTC 2433 (NB media) were obtained from the Korean Collection for Type Cultures (Jeollabuk-do, Korea). E. coli CCARM 1238 was received from the Culture Collection of Antibiotic Resistant Microbes at Seoul Women’s University, Korea. Drug-resistant P. aeruginosa 3543, 3904, 3547, and 4007 and S. aureus 3126, 0027, 5157, 1635, 4761, 5159, 3359, 2122, 1630, 1870, 3511, 5156, and 3518 were resistant strains isolated from patients with otitis media in a Chonnam National University’s hospital.
The antibacterial activities of AMPs (melittin, clavaspirin, and its analogs) and conventional antibiotic drugs (erythromycin, gentamicin, ampicillin, and piperacidin) were determined using microdilution assays. […] Thereafter, 2× serial dilutions of each peptide (0.25–128 μM) or antibiotic (0.25–256 μM) were added to sterile 96-well plates, and aliquots of cell suspension (5 × 10^5 colony forming units (cfu)/mL) were seeded into each well. The samples were then incubated at 37° C for 24 h. At the end of the incubation, the minimum inhibitory concentrations (MICs) of the peptides were determined using a VERSA Max microplate reader (Molecular Devices Co., Sunnyvale, CA, USA) at a wavelength of 600 nm. […] MIC values were calculated as the mean of 3 independent experiments conducted in triplicate.

[2] = C18 RP-HPLC retention time as measure of hydrophobicity; assay type: physicochemical; settings: chromatographic, linear gradient of 10–60 acetonitrile containing 0.7% trifluoroacetic acid for 50 min, mean, used as measure of hydrophobicity
Experimental: Supplementary Table 1: Sequence, molecular mass, retention time, and hemolytic and cytotoxic activities of clavaspirin and its analogues
Designation Sequences Molecular Retention HC /HC a EC /EC b
The meanretention time was analyzed using C18 reversed phase-high-performance liquid chromatography (RP-HPLC).
Samples were run using a linear gradient of 10–60 acetonitrile, containing 0.7% trifluoroacetic acid for 50 min. aHemolytic activity was determined in PBS buffer containing 8% hRBCs. bEffective concentration in HaCaT cells was determined in DMEM buffer containing 10% FBS and 1% PS.

[3] = system: Proteus vulgaris KCTC 2433; assay type: cell-based
Source text: (§2) The method for peptide synthesis has been described in detail previously. E. coli ATCC 25922 (LB media), P. aeruginosa ATCC 15692 (NB+0.5% NaCl media), Listeria monocytogenes ATCC 3710 (LB media), Staphylococcus epidermidis ATCC 12228 (LB media), and S. aureus ATCC 29213 (TSB media) were obtained from the American Type Culture Collection (Manassas, VA, USA). […] E. coli CCARM 1238 was received from the Culture Collection of Antibiotic Resistant Microbes at Seoul Women’s University, Korea. Drug-resistant P. aeruginosa 3543, 3904, 3547, and 4007 and S. aureus 3126, 0027, 5157, 1635, 4761, 5159, 3359, 2122, 1630, 1870, 3511, 5156, and 3518 were resistant strains isolated from patients with otitis media in a Chonnam National University’s hospital.
(§3) The antibacterial activities of AMPs (melittin, clavaspirin, and its analogs) and conventional antibiotic drugs (erythromycin, gentamicin, ampicillin, and piperacidin) were determined using microdilution assays. Bacterial cells were cultured at 37° C in appropriate culture media at pH 5.5 or pH 7.4 until collection during the mid-log phase and suspended in 10 mM sodium phosphate buffer (pH 5.5 or pH 7.4) supplemented with 10% culture medium. Thereafter, 2× serial dilutions of each peptide (0.25–128 μM) or antibiotic (0.25–256 μM) were added to sterile 96-well plates, and aliquots of cell suspension (5 × 10^5 colony forming units (cfu)/mL) were seeded into each well. The samples were then incubated at 37° C for 24 h. At the end of the incubation, the minimum inhibitory concentrations (MICs) of the peptides were determined using a VERSA Max microplate reader (Molecular Devices Co., Sunnyvale, CA, USA) at a wavelength of 600 nm. […] MIC values were calculated as the mean of 3 independent experiments conducted in triplicate.

[4] = system: Salmonella typhimurium KCTC 1926; assay type: cell-based
Source text: as §2, §3

S. aureus ATCC 29213 = assay type: cell-based, Staphylococcus aureus
Source text: as §1, §3

[5] = Aggregation assay (light scattering); assay type: physicochemical; settings: 10 mM sodium phosphate buffer; for Self-aggregation: light scattering ex 400 nm / em 400 nm, 12 h, 37° C, mean of three experiments
Experimental: Light scattering assays were performed with clavaspirin and its analogue peptides using a Perkin-Elmer LS55 fluorometer. Peptides were dissolved in 10 mM sodium phosphate buffer (pH 5.5 or pH 7.4) and incubated for 12 h at 37° C. Light scattering was excited at 400 nm and the emission was scanned at 400 nm.

[6] = pH 5.5 (I), 10 mM sodium phosphate buffer, 10% LB, 37° C, 24 h, mean of 3 experiments
[7] = pH 7.4 (II), 10 mM sodium phosphate buffer, 10% LB, 37° C, 24 h, mean of 3 experiments

Substance: FKRFIGSVKHGIGHLVHHIGVAL-NH2 [CSP-3]
- HC10 (hemolytic activity) [1]: > 400
- HC50 (hemolytic activity) [1]: > 400
- MIC, P. aeruginosa (P. aeruginosa ATCC 15692; ATCC 15692, 24 h, pH 5.5): 32 µM
- MIC, P. aeruginosa (P. aeruginosa ATCC 15692; ATCC 15692, 24 h, pH 7.4): 32 µM
- Retention time [2]: 21.4 min
- MIC, P. vulgaris ([3]; KCTC 2433, 24 h, pH 5.5): 4 µM
- MIC, P. vulgaris ([3]; KCTC 2433, 24 h, pH 7.4): 8 µM
- MIC, S. typhimurium ([4]; KCTC 1926, 24 h, pH 5.5): 64 µM
- MIC, S. typhimurium ([4]; KCTC 1926, 24 h, pH 7.4): 4 µM
- MIC, S. aureus (S. aureus ATCC 29213; ATCC 29213, 24 h, pH 5.5): 8 µM
- MIC, S. aureus (S. aureus ATCC 29213; ATCC 29213, 24 h, pH 7.4): 8 µM
- Self-aggregation ([5]; pH 7.4): aggregation increased

Substance: FLRFIGSVKHGKGHLVHHIGVAL-NH2 [CSP-4]
- HC10 (hemolytic activity) [1]: > 400
- HC50 (hemolytic activity) [1]: > 400
- MIC, P. aeruginosa (P. aeruginosa ATCC 15692; [6]): 32 µM
- MIC, P. aeruginosa (P. aeruginosa ATCC 15692; [7]): 32 µM
- Retention time [2]: 20.2 min
- MIC, P. vulgaris [3, 6]: 4 µM
- MIC, P. vulgaris [3, 7]: 8 µM
- MIC, S. typhimurium [4, 6]: 64 µM
- MIC, S. typhimurium [4, 7]: 4 µM
- MIC, S. aureus (S. aureus ATCC 29213; [6]): 8 µM
- MIC, S. aureus (S. aureus ATCC 29213; [7]): 8 µM
- Self-aggregation ([5]; pH 5.5): very little self-aggregation
- Effect of varying the pH on aggregation ([5]; pH 5.5 vs pH 7.4, light scattering): not affected
- Self-aggregation ([5]; pH 7.4): very little self-aggregation
